Series [1] concerns the target T1, p38 (Homo sapiens, UniProt P53778).
T1 construct: purchased Eurofins (Celle Lévescault)
T1 sequence (P53778 1-367): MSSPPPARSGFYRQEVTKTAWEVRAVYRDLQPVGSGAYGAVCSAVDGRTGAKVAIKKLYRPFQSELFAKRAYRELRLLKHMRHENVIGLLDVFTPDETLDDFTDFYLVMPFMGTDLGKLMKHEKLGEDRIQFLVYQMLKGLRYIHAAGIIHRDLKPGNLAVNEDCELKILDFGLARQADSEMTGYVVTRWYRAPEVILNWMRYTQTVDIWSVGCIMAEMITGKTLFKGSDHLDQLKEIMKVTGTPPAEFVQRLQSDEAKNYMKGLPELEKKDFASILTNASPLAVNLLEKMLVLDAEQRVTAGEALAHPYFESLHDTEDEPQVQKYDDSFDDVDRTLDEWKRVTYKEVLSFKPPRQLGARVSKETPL
Put plainly: Eurofins kinase selectivity profile, p38. Type of series: biochemical. Conditions: p38-gamma/SAPK3(h), read-out: Inhibition rate (%). The method, then:
(§1) Subsequently, to ascertain whether the high potency of compound 11 was specific for MK2, an additional 380 human recombinant protein kinases were screened.
(§2) To assess the impact of various compounds on MK2 kinase activity, we utilized the ADP‐Glo Assay Kit (Promega) following the manufacturer's instructions. Luminescence measurements were taken using a SpectraMax Paradigm reader. The inhibition percentage was calculated using the following formula: ((specific signalDMSO control − specific signal inhibitor)/(specific signalDMSO control)) × 100%. The IC50 values were determined employing dose–response curve fitting via Prism (Graph Pad). Additionally, Eurofins company (Celle Lévescault) conducted the analysis on compound 11’s inhibitory activity against 380 other human recombinant kinases at various concentrations.

Series [2] has as its target T2, p38 (Homo sapiens, UniProt Q15759).
T2 construct: purchased Eurofins (Celle Lévescault)
Nature of the series: Eurofins kinase selectivity profile, p38. The format is biochemical. The settings on record: p38-beta/SAPK2b(h), read-out: Inhibition rate (%). Here is the method:
as §1, §2

Series [3] has as its system MRC1 and ARG-1 mRNA in THP-1 monocyte induced macrophages. Put plainly: RT-PCR of M2 markers in IL-4/IL-13 stimulated THP-1 macrophages. The settings on record: IL-4/IL-13 20 ng/mL. Type of series: cell-based, human. The source says:
(§3) A previous study has reported that MK2 fostered M2‐like polarization of TAMs, driving a protumor and proangiogenic phenotype which in turn accelerates tumor progression.[21] We thus assessed the influence of compound 11 on macrophage polarization and function. Our experiments used human THP‐1 monocyte induced macrophages, mouse RAW264.7 macrophages, and mouse bone marrow‐derived macrophages (BMDM). These cells were induced into M2‐like macrophages using the classic IL‐4 and IL‐13 stimuli.
(§4) FIGURE 5 Inhibition of pro‐tumorigenic M2‐like polarization in macrophages by compound 11. (A–C) RT‐PCR analysis highlights the impact of compound 11 on MRC1 and ARG‐1 mRNA expression in various macrophage cells treated with IL‐4/IL‐13 alone or combined with compound 11 for 12 h or 24 h. […] Data are shown as the mean ± SD. ^* p < 0.05; ^*** p < 0.001 versus the vehicle group, determined by unpaired t test. […]
Total RNA was extracted from cultured cells using the EZ‐press RNA Purification Kit (EZBioscience). Complementary DNA was synthesized using the ABScript III RT Master Mix for qPCR with gDNA remover (ABclonal Technology) and was quantified with primers listed in Table S5. The relative mRNA expression levels were quantified through qPCR using the SYBR green gene expression assay (ABclonal Technology).

The test system of series [4] is CD206 and Arg-1 expression in BMDM. Nature of the series: Flow cytometry of CD206 and Arg-1 in IL-4/IL-13 stimulated BMDM. The format is cell-based, mouse. The settings on record: IL-4/IL-13, 48 h.
From the text: as §3
as §4, with “h. (D) CD206 and Arg‐1 expression in bone marrow‐derived macrophages (BMDM) cells via flow cytometry post 48 h treatment of compound 11 and IL‐4/IL‐13. (E) The treatment effects of compound 11 in THP‐1 cells using western blot analysis. Cells were pretreated with compound 11 for 1 h and followed by IL‐4/IL‐13 treatment (30 min). (F) The influence of MK2 siRNA on MRC1 and ARG‐1 mRNA expression in THP‐1 cells by RT‐PCR analysis post‐IL‐4/IL‐13 stimulation (12 h).” for “h.”
(In general: Flow cytometry measures light scatter and fluorescence of single cells or particles in a stream.)

Series [5] can be described thus: Cell viability assay (CCK-8), HCC44. The format is cell-based. Conditions: HCC44 cells (non-small cell lung carcinoma), HCC44, human non-small cell lung carcinoma, read-out: IC50 (μM) mean ± SD, cytotoxicity. The method, then:
In cellular experiments, cells are seeded into either 6-well or 96-well plates and incubated overnight, proceeding with treatments as described in the figure legends or methods section. The cell inoculation numbers are outlined as follows: For assays measuring cell viability, between 3,000 to 5,000 cells are seeded per well in 96-well plates. For other cellular assays, the seeding density ranges from 5×10^5 to 1×10^6 cells per well in 6-well plates.
Cells was plated into 96-well plates and incubated overnight prior to introduction of varying concentrations of compounds or control solvent. Following a 72-hour exposure period, cell viability was determined using a Cell Counting Kit-8 assay (Life-iLab, China). Dose-response curves were fitted using a four-parameter method facilitated by SoftMax Pro, which was subsequently used for the computation of IC50 values.

Each structure is given as a SMILES string.

T2 sequence (Q15759 whole entry): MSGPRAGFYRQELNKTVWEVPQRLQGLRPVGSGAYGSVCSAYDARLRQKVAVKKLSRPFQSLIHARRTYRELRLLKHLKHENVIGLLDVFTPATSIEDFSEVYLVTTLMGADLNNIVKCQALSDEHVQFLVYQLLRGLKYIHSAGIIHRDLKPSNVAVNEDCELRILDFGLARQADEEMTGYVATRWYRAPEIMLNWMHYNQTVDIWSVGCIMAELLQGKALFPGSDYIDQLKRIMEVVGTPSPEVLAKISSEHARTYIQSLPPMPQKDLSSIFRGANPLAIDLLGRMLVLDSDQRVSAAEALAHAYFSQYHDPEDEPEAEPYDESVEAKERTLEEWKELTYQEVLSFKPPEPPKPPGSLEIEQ

Usually inhibition stands for the change of the read-out against control, counted positive when it falls. As usually defined, the IC50 is the concentration that gives 50% inhibition. Regarding `C=CC(=O)Nc1cc(-c2cc(-c3cc4c([nH]3)CCNC4=O)ccn2)ccc1OC(F)(F)F` [compound 11], the inhibition at 0.01 µM was 5% in series [1] (10 nM) and -7% in series [2] (10 nM). Moreover, the inhibition at 0.1 µM in series [1] (100 nM) is 2%; in series [2] (100 nM) it was -11%. Also, the inhibition at 1 µM in series [1] (1000 nM) was 20%; in series [2] (1000 nM), -4%. The “effect on transcriptional level of MRC1 and ARG-1” value in series [3] was “significantly suppressed”. The “effect on expression levels of surface CD206 and Arg-1” value in series [4] is “suppress”. Also, the IC50 at 72 h in series [5] worked out at 32.3 ± 3.3 µM.

The record behind these values is article PMC11233931, “Remodeling tumor‐associated macrophage for anti‐cancer effects by rational design of irreversible inhibition of mitogen‐activated protein kinase‐activated protein kinase 2” (MedComm, 2024).
